Experiments:
[1] = molecular target: T1, recombinant human Cox-1 (r-hu Cox1) (Homo sapiens, UniProt P23219); experiment: Recombinant human PGHS-1 enzyme assay (RHUCX1); type: biochemical
T1 construct: made in house; host or cells: baculovirus/Sf9 insect cells (microsomes)
Outline: (§1)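 PGE2 production measured by enzyme immunoassay with standards in the same milieu. Inhibition was computed versus control group mean and IC50 estimated by linear regression.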

[2] = molecular target: T2, recombinant human Cox-2 (r-hu Cox-2) (Homo sapiens, UniProt P35354); experiment: Recombinant human PGHS-2 enzyme assay (RHUCX2); type: biochemical; conditions: for IC50: read-out: RHUCX2 IC50 (parenthetical value)
T2 construct: made in house; host or cells: baculovirus/Sf9 insect cells (microsomes)
T2 sequence (P35354 18-604): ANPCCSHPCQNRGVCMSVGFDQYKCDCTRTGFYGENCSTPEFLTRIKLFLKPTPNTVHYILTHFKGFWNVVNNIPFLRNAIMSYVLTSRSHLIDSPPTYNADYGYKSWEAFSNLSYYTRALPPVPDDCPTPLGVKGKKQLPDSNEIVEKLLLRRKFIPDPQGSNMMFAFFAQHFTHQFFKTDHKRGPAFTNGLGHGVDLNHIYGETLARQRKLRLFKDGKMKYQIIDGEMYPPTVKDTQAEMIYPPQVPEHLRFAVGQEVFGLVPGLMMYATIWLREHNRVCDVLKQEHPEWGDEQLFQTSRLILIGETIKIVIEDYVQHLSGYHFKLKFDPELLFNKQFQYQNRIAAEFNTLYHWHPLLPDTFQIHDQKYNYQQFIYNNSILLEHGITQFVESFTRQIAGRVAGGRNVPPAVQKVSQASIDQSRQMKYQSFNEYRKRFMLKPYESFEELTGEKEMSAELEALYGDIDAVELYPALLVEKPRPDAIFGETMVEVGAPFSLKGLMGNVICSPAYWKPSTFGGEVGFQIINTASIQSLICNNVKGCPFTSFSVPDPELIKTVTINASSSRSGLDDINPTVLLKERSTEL
Outline: as §1

[3] = molecular target: T3, Human Whole Platelet Cyclooxygenase-1 (Homo sapiens, UniProt P23219); experiment: Human Whole Platelet Cyclooxygenase-1 assay (HWPX); type: cell-based; conditions: for IC50: read-out: HWPX IC50 (parenthetical value)
T3 construct: from tissue; host or cells: human blood: isolated platelets (A4) or heparinised whole blood (A9)
Outline: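 Thromboxane production was measured with a commercial kit after stimulation of washed human platelets (ACD-anticoagulated volunteer blood) by 8.8 μM final A23187 for 10 min. Test compounds were added 10 min before stimulus; cold 6 mM EDTA terminated the reaction.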

[4] = molecular target: T4, human amnionic whole cell cyclooxygenase-2 (WISH cells) (Homo sapiens, UniProt P35354); experiment: IL-1β induced PGE2 production in WISH cells; type: cell-based; conditions: read-out: Wish IC50 (parenthetical value)
T4 construct: endogenous in cells; host or cells: human amnionic WISH cells, induced with IL-1beta
T4 sequence (P35354 18-604): T2 sequence (P35354 18-604)
Outline: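 PGE2 was quantified by enzyme immunoassay (optical density read) against standards made up in the matching medium. WISH cells at 80% confluence, washed and placed in serum-free Neuman-Tytell medium, received 5 ng/ml IL-1β plus test compound or DMSO vehicle (0.01% v/v).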

[5] = test system: carrageenan induced paw edema; experiment: Carrageenan induced paw edema (CPE) in rats; type: in vivo; conditions: rat; for inhibition in vivo at 10 mg/kg: read-out: CPE % Inhib. @ 10 mpk
Description: For oral administration, test compounds were suspended on the day of use in 100% polyethyleneglycol (PEG 400) with a motorized homogenizer equipped with a Teflon-coated pestle (TRI-R Instrument, Jamaica, N.Y.).
(§2) To compare the mean responses of the treatment groups, analysis of variance was applied. Percent inhibition values were determined by comparing the individual treatment mean values to the mean of the control group. Linear regression was used to estimate IC50's/ED50's in appropriate assays.
Hingpaw edema was […] in male rats as described by Winter et al., Proc. Soc. Exp. Biol. Med., 1962, 111, 544. Briefly, male Sprague-Dawley rats weighing between 170 and 190 g were administered test compounds orally 1 hour prior to the subplantar injection of 0.1 ml of 1% sodium carrageenan (lambda carrageenan, Sigma Chemical Co., St Louis, Mo.) into the right hindpaw. Right paw volumes (ml) were measured immediately following injection of carrageenan for baseline volume measurements using a Buxco plethysmograph (Buxco Electronics, Inc., Troy, N.Y.). Three hours after the injection of carrageenan, right paws were remeasured and paw edema calculated for each rat by subtracting the zero time reading from the 3 hour reading. Data are reported as mean percent inhibition +/−SEM. Statistical significance of results was analyzed by Dunnetts multiple comparison test where p<0.05 was considered statistically significant.

[6] = test system: air pouch prostaglandin biosynthesis (Cox-2); experiment: Carrageenan induced air pouch prostaglandin biosynthesis model (CAP); type: in vivo, rat; conditions: for inhibition in vivo at 3 mg/kg: 4 h, read-out: CAP % Inhib. @ 3 mpk; for ED50: Rattus norvegicus
Description: as §2
Carrageenan induced air pouch prostaglandin biosynthesis model (CAP) Air pouches are formed in the backs of male Sprague Dawley rats by injecting 20 mL of sterile air on day 0. Three days later the pouch was reinflated with an additional 10 mL of sterile air. On day 7, 1 mL of saline containing 0.2 % lambda carrageenan (Sigma Chemical Co.) is injected into the pouch to induce the inflammatory reaction that is characterized by the release of prostaglandins. Test compounds are dosed at 0.1 to 10 mg/kg 30 minutes prior to carrageenan. Four hours after the carrageenan injection the pouch is lavaged and levels of prostaglandins are determined by enzyme immuno-assay using commercially available kits. […] Values for Cox-2 inhibition that are parenthetical indicate ED50 values.

[7] = read-out: RHUCX1 % Inh. at Dose
[8] = 10 mpk oral, 3 hours after carrageenan
[9] = read-out: RHUCX2 % Inh. at Dose

T3 sequence (P23219 24-599): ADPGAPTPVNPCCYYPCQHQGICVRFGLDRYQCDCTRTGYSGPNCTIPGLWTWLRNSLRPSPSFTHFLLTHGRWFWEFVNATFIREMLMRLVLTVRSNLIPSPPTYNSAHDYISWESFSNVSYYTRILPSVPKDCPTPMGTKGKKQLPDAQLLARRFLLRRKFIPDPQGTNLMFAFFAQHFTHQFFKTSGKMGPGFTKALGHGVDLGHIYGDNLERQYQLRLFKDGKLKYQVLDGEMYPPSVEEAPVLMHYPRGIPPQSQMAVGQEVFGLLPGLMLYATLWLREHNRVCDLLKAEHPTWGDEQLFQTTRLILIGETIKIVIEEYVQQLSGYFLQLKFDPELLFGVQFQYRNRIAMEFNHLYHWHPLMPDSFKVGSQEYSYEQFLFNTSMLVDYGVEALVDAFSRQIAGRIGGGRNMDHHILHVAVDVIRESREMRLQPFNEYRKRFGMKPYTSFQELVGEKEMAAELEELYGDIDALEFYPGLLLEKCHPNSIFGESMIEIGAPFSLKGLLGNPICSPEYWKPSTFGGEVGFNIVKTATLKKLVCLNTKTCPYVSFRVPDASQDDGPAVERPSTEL
T1 sequence (P23219 24-599): as above

| Structure (SMILES) | inhibition at 100 µM [1, 7] [%] | IC50 [2] [µM] | IC50 [3] [µM] | IC50 [4] [µM] | melting point [°C] | inhibition in vivo at 10 mg/kg [5, 8] [%] | inhibition in vivo at 3 mg/kg ([6]; 3 mpk, rat) [%] | also measured |
| --- | --- | --- | --- | --- | --- | --- | --- | --- |
| CS(=O)(=O)c1ccc(-c2cnn(-c3ccc(F)c(F)c3)c(=O)c2Oc2ccc(F)cc2)cc1 [Example 109, 2-(3,4-Difluorophenyl)-4-(4-fluorophenoxy)-5-[4-(methylsulfonyl)phenyl]-3(2H)-pyridazinone] | 6 | 0.147 | 2.69 | 0.018 | 178 to 180 | 13 | 71 |  |
| CS(=O)(=O)c1ccc(-c2cnn(-c3cccc(Cl)c3)c(=O)c2Oc2ccc(F)cc2)cc1 [Example 112, 2-(3-Chlorophenyl)-4-(4-fluorophenoxy)-5-[4-(methylsulfonyl)phenyl]-3(2H)-pyridazinone] | 5 | 0.136 |  |  | 211 to 213 | 21 | 42.5 |  |
| CC(C)CCc1c(-c2ccc(S(N)(=O)=O)c(F)c2)cnn(CC(F)(F)F)c1=O [Example 226] | 0 | 1.09 |  |  |  | 21 | 40.5 |  |
| CC(C)(C)COc1c(-c2ccc(S(C)(=O)=O)cc2)cnn(CC(F)(F)F)c1=O [Example 261] |  | 0.161 | 34 | 0.099 | 145 to 146 | 28 | 79 | inhibition at 200 µM ([1]; 200 μM, read-out: RHUCX1 % Inh. at Dose): 0% |
| CC(C)CCOc1c(-c2ccc(S(C)(=O)=O)cc2)cnn(-c2cccc(Cl)c2)c1=O [Example 339, 2-(3-Chlorophenyl)-4-(3-methylbutoxy)-5-[4-(methylsulfonyl)phenyl]-3(2H)-pyridazinone] | 2 | 0.088 | 0.393 | 0.026 | 134 to 135 | 43 | 90.5 | ED50 [6]: 0.58 mg/kg |
| CC(C)CCOc1c(-c2ccc(S(C)(=O)=O)cc2)cnn(-c2ccc(F)c(F)c2)c1=O [Example 347, 2-(3,4-Difluorophenyl)-4-(3-methyl-1-butoxy)-5-[4-(methylsulfonyl)phenyl]-3(2H)-pyridazinone] | 11 | 0.075 |  |  | 121 to 123 | 27 | 66.5 |  |
| CC(=O)CCOc1c(-c2ccc(S(C)(=O)=O)cc2)cnn(-c2ccc(F)c(F)c2)c1=O [Example 467, 2-(3,4-Difluorophenyl)-4-(3-oxo-1-butoxy)-5-[4-(methylsulfonyl)phenyl]-3(2H)-pyridazinone] | 4 | 1.96 |  | 0.135 | 134 to 135 |  |  | CPE ED30 ([5]; oral): ED30 = 1.7; ED50 [6]: 0.4 mg/kg |
| CC(C)(O)CCOc1c(-c2ccc(S(C)(=O)=O)cc2)cnn(-c2cccc(Cl)c2)c1=O [Example 475, 2-(3-Chlorophenyl)-4-(3-hydroxy-3-methyl-1-butoxy)-5-[4-(methylsulfonyl)phenyl]-3(2H)-pyridazinone] | 0 | 0.71 |  | 0.44 |  | 33 |  | inhibition at 100 µM ([3]; 100 μM, read-out: HWPX % Inhib. at Dose): 50%; ED50 [6]: 1.4 mg/kg |

Continued, in another order:

| inhibition at 100 µM [1, 7] [%] | IC50 [2] [µM] | IC50 [3] [µM] | IC50 [4] [µM] | melting point [°C] | Structure (SMILES) | inhibition in vivo at 10 mg/kg [5, 8] [%] | inhibition in vivo at 3 mg/kg ([6]; 3 mpk, rat) [%] | also measured |
| --- | --- | --- | --- | --- | --- | --- | --- | --- |
| 12 | 0.027 |  |  | 121 to 128 | CC(C)COc1c(-c2ccc(S(C)(=O)=O)cc2)cnn(-c2ccc(F)cc2)c1=O [Example 376, 2-(4-Fluorophenyl)-4-(2-methylpropoxy)-5-[4-(methylsulfonyl)phenyl]-3(2H)-pyridazinone] | 17 | 77.5 |  |
|  | 0.049 |  | 0.032 |  | NS(=O)(=O)c1ccc(-c2cnn(-c3ccc(F)c(F)c3)c(=O)c2Oc2ccc(F)cc2)cc1 [Example 388, 2-(3,4-Difluophenyl)-4-(4-fluorophenoxy)-5-[4-(aminosulfonyl)phenyl]-3(2H)-pyridazinone] |  |  | RHUCX1 % Inh. at Dose (μM) ([1]; 1 μM): 36 @ 1%; RHUCX1 % Inh. at Dose (μM) ([1]; 10 μM): 74 @ 10%; HWPX % Inhib. at Dose (μM) ([3]; 0.3 μM): 0 @ .3%; CPE % Inhib. @ 10 mpk [5, 8]: 28%; CAP % Inhib. @ 3 mpk ([6]; 3 mpk, rat): 80% |
| 56 |  | 1.95 | 0.02 | 167 to 170 | CC(C)CCc1c(-c2ccc(S(N)(=O)=O)cc2)cnn(-c2cccc(Cl)c2)c1=O [Example 392, 2-(3-Chlorophenyl)-4-(3-methylbutyl)-5-[4-(aminosulfonyl)phenyl]-3(2H)-pyridazinone] |  | 60 | inhibition at 10 µM ([1]; 10 μM, read-out: RHUCX1 % Inh. at Dose): 35%; inhibition at 0.01 µM [2, 9]: 65%; inhibition at 0.1 µM [2, 9]: 82% |
| 22 | 0.059 | 12.7 | 0.02 | 180 to 183 | CC(C)CCc1c(-c2ccc(S(N)(=O)=O)cc2)cnn(-c2ccc(F)cc2)c1=O [Example 396, 2-(4-Fluorophenyl)-4-(3-methylbutyl)-5-[4-(aminosulfonyl)phenyl]-3(2H)-pyridazinone] | 23 | 85 |  |
| 25 |  | 13.8 | 0.04 | 132 to 136 | CC(C)COc1c(-c2ccc(S(N)(=O)=O)cc2)cnn(-c2ccc(F)cc2)c1=O [Example 397, 2-(4-Fluorophenyl)-4-(2-methylpropoxy)-5-[4-(aminosulfonyl)phenyl]-3(2H)-pyridazinone] |  | 70 | inhibition at 0.01 µM [2, 9]: 39%; inhibition at 0.1 µM [2, 9]: 58%; inhibition at 1 µM ([2]; 1 μM, read-out: RHUCX2 % Inh. at Dose): 93% |
|  | 0.72 | 3.5 | 0.054 |  | CC(=O)NS(=O)(=O)c1ccc(-c2cnn(CC(F)(F)F)c(=O)c2OCC(C)(C)CO)cc1 [Example 528, N-[[4-[2-(2,2,2-Trifluoroethyl)-4-(3-hydroxy-2,2-dimethyl-1-propoxy)-2H-pyridazin-3-on-5-yl]phenyl]sulfonyl]acetamide] | 40 |  | IC50 ([1]; read-out: RHUCX1 IC50 (parenthetical value)): 3.4 µM; ED50 [6]: 1.4 mg/kg |
